Laboratory results from patent US20040014648A1, “Methods for the prevention and/or the treatment of neurological disorders” (FAUST PHARMACEUTICALS, priority 2002, published 2004).

How the values were obtained:
[1] = tested on: primary cultures of neurons, isolated from the rat brain cortex; assay: Neuroprotection assay: Ionomycin-evoked neuron cell death (LDH release); format: cell-based; conditions: FIG. 4
Description: (§1) Primary cortical neuron cultures.
Assessment of neuron cell death.
The neurons were treated in vitro with 5 μM of Ionomycin (Sigma), a calcium ionophore, in presence of 10 μM of 1-Naphthol, in absence or in presence of 5 or 10 μM of 3-methylcholanthrene (3-MC, Aldrich), an UGT inducer which allows the in situ glucuronidation of 1-Naphthol.

[2] = tested on: primary cultures of neurons isolated from the rat brain cortex; assay: Glutamate level determination (chemiluminescent enzymatic assay); format: cell-based; conditions: FIG. 5
Description: as §1
Assessment of glutamate release. Glutamate released by neurons in culture was evaluated in aliquots of the supernatants by means of a chemiluminescent enzymatic assay (Israel et al., Neurochem Int. 1993 Jan. 22(1):53-8).
The glutamate released by neurons was followed by an enzymatic assay coupled to a chemiluminescent reaction. […]

[3] = tested on: primary cultures of neurons, isolated from the rat brain cortex; conditions: 3-NP 400 μM, 24 hours; compound at 0.1, 1 and 5 μM; FIG. 2

SMILES: Oc1cccc2ccccc12 [1-Naphthol]
- protective effect with in situ glucuronidation by 3-MC ([1]; Ionomycin 5 μM, compound at 10 μM plus 3-MC 5 or 10 μM): reinforces, dose dependently, the protective effect
- protection of neurons from Ionomycin-evoked cell death ([1]; Ionomycin 5 μM, compound at 10 μM): protects neurons from Ionomycin-evoked cell death
- glutamate release by neurons ([2]; compound at 1 μM and 10 μM (lanes 4, 7)): at both concentrations reduces the release of glutamate
- glutamate release with glucuronidation by 3-MC ([2]; compound at 10 μM plus 3-MC 1 or 5 μM): reinforces, dose dependently, the decrease of glutamate
- glutamate release by neurons ([2]; compound at 10 μM): reduces glutamate release
- significance of the improved decrease of glutamate with 3-Methylcholanthrene ([2]; compound at 1 or 10 μM plus 3-Methylcholanthrene 5 μM (lanes 6, 9)): statistically significant at the highest dose of 3-Methylcholanthrene

SMILES: Cc1ccc2cc3c(ccc4ccccc43)c3c2c1CC3 [3-Methylcholanthrene, 3-methylcholanthrene, reference compound]
- protective effect against the toxicity induced by Ionomycin ([1]; Ionomycin 5 μM, compound alone at 5 or 10 μM (lanes 5, 6)): no protective effect against the toxicity induced by Ionomycin
- effect on the natural death of neurons ([1]; compound alone at 5 or 10 μM, no Ionomycin (lanes 2, 3)): no effect on the natural death of neurons
- glutamate release by neurons ([2]; compound alone at 5 μM (lane 3)): have no effect on glutamate release

SMILES: CN1C(=O)CN=C(c2ccccc2)c2cc(Cl)ccc21 [Diazepam]
- protection of neurons from 3-NP-evoked cell death [3]: protects neurons from 3-NP at all tested doses
